Measurements: PMC11013491, “Triterpenoids from the Leaves of Diospyros digyna and Their PTP1B Inhibitory Activity” (Molecules, 2024)

Target: T1, PTP1B (Homo sapiens, UniProt P18031)
T1 construct: purchased Abcam, Cambridge, UK
T1 sequence (P18031 1-435): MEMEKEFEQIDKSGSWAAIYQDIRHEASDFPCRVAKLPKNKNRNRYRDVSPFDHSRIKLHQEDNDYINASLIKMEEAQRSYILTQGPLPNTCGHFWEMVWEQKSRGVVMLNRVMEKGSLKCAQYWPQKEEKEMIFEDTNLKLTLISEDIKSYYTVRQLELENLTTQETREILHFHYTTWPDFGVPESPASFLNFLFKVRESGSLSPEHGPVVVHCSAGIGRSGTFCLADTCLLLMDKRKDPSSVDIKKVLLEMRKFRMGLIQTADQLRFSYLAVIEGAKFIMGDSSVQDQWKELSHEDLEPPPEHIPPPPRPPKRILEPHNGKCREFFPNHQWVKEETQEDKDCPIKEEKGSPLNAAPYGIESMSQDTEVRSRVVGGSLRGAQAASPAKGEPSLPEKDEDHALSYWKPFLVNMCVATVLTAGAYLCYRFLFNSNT
Experiment: PTP1B inhibition assay (pNPP substrate)
Type: biochemical
Settings: human recombinant PTP1B, 37 °C, 30 min, triplicate, means ± SD, read-out: PTP1B inhibitory activity IC50
Experimental: The inhibitory activity of the isolated compounds against PTP1B (Abcam, Cambridge, UK, human recombinant) was assayed according to the method reported previously. The reagent p-nitrophenyl phosphate (pNPP) was used as the substrate, and oleanolic acid was used as the positive control. In brief, a 100 μL assay mixture containing 1 μg/mL PTP1B, samples, 4 mM pNPP, 55 mM NaCl, 2.2 mM DTT, 1.1 mM EDTA, and […] in 11 mM Tris-HCl, pH 7.5, was incubated at 37 °C for 30 min in a 96-well plate. The absorbance of 405 nm was measured by a microplate reader. Data were analyzed by GraphPad Prism v.10.2.0 software. All data were obtained in triplicate and presented as means ± SD.

Structure (SMILES) | IC50
C=C1CCC2(C(=O)O)CCC3(C)C(=CCC4C5(C)CC(O)C(OC(=O)C=Cc6ccc(O)cc6)C(C)(C)C5CCC43C)C2C1C (stereo not drawn) [Compound 4, 3β-trans-p-coumaroyloxy-2α-hydroxy-12,20(30)-ursadien-28-oic acid] | 48.7 ± 5.17 µM
C=C1CCC2(C(=O)O)CCC3(C)C(=CCC4C5(C)CC(O)C(OC(=O)C=Cc6ccc(O)c(OC)c6)C(C)(C)C5CCC43C)C2C1C (stereo not drawn) [Compound 5, 3β-trans-feruloyloxy-2α-hydroxy-12,20(30)-ursadien-28-oic acid] | 23.7 ± 0.73 µM
C=C1CC[C@]2(C(=O)O)CC[C@]3(C)C(=CC[C@@H]4[C@@]5(C)C[C@@H](O)[C@@H](OC(=O)/C=C/c6ccc(O)c(OC)c6)C(C)(C)[C@@H]5CC[C@]43C)[C@@H]2[C@H]1C [Compound 6, 3α-trans-feruloyloxy-2α-hydroxy-12,20(30)-ursadien-28-oic acid] | 34 ± 4.88 µM
C[C@H]1[C@H](C)CC[C@]2(C(=O)O)CC[C@]3(C)C(=CC[C@@H]4[C@@]5(C)C[C@@H](O)[C@H](OC(=O)/C=C\c6ccc(O)cc6)C(C)(C)[C@@H]5CC[C@]43C)[C@H]12 [Compound 10, 3β-O-cis-p-coumaroyl-2α-hydroxy-urs-12-en-28-oic acid] | 19.2 ± 0.22 µM
C[C@H]1[C@H](C)CC[C@]2(C(=O)O)CC[C@]3(C)C(=CC[C@@H]4[C@@]5(C)C[C@@H](O)[C@H](OC(=O)/C=C/c6ccc(O)cc6)C(C)(C)[C@@H]5CC[C@]43C)[C@H]12 [Compound 11, jacoumaric acid] | 26.2 ± 1.31 µM
COc1cc(/C=C\C(=O)O[C@H]2[C@H](O)C[C@]3(C)[C@H]4CC=C5[C@@H]6[C@@H](C)[C@H](C)CC[C@]6(C(=O)O)CC[C@@]5(C)[C@]4(C)CC[C@H]3C2(C)C)ccc1O [Compound 12, 3β-O-cis-feruloyl-2α-hydroxy-urs-12-en-28-oic acid] | 16.2 ± 0.57 µM
COc1cc(/C=C/C(=O)O[C@H]2[C@H](O)C[C@]3(C)[C@H]4CC=C5[C@@H]6[C@@H](C)[C@H](C)CC[C@]6(C(=O)O)CC[C@@]5(C)[C@]4(C)CC[C@H]3C2(C)C)ccc1O [Compound 13, 3β-O-trans-feruloyl-2α-hydroxy-urs-12-en-28-oic acid] | 10.3 ± 1.21 µM
C=C1CC[C@]2(C(=O)O)CC[C@]3(C)C(=CC[C@@H]4[C@@]5(C)C[C@@H](O)[C@@H](OC(=O)/C=C/c6ccc(O)cc6)C(C)(C)[C@@H]5CC[C@]43C)[C@@H]2[C@H]1C [Compound 15, 3α-trans-coumaroyloxy-2α-hydroxy-12,20(30)-dien-28-ursolic acid] | 17.1 ± 1.67 µM
